This note sets out measurements from patent US20250101038A1, “COMPOUNDS” (priority 2021, published 2025).

As usually defined, the Emax is the maximal effect, on the per cent scale that the assay sets.

The assay has as its target T1, 5-HT2C receptor (Homo sapiens, UniProt P28335).
T1 construct: host or cells: HEK293
T1 sequence (P28335 33-458): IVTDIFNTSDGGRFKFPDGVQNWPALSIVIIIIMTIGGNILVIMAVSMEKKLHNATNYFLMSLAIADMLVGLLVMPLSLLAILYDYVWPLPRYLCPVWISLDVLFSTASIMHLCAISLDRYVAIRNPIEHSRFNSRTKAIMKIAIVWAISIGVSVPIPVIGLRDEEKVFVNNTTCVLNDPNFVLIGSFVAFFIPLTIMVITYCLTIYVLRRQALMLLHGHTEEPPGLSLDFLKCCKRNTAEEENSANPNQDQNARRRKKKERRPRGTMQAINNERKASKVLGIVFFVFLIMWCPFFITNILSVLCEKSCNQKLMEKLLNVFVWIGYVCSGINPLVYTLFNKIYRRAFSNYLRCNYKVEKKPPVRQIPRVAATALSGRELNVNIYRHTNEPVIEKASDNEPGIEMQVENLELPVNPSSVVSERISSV
Briefly: cell-based. To be noted: agonist activity, Ca2+ flux, HEK293 cells. On the technique in general: Calcium assays in cells follow changes in intracellular calcium, usually with a dye or a luminescent sensor.

For `CCN(C)CCc1c[nH]c2ccc(OC)c(C)c12` [Example P-37, N-ethyl-2-(5-methoxy-4-methyl-1H-indol-3-yl)-N-methylethan-1-amine], the Emax worked out at 53.1%.
Compound `CCN(C)CCc1c[nH]c2c(C)cc(OC)cc12` [Example P-51, N-ethyl-2-(5-methoxy-7-methyl-1H-indol-3-yl)-N-methylethan-1-amine] showed an Emax of 57.3%.
